The values below are quoted from earlier work in patent US11026907B2, “Azelaic acid gel, preparation method and application thereof” (CHENGDU JOY YOUNG BIOTECHNOLOGY CO., LTD., priority 2018, dated 2021).

Read-outs that look alike come from different tables or passages of the source.

On to `O=C(O)CCCCCCCC(=O)O` [Azelaic acid], for which the Solubility entry is “slightly soluble” (in cold water, ether and benzene); “soluble” (in hot water, alcohol and some polyols).
